We go through 1 compound from patent publication US20100113596A1, “Method for inhibiting liver fibrosis via retinoic acid derivative” (priority 2008, published 2010).

The subject of data set [1] is [Ca2+]i in TGF-β treated HSC-T6 cells. The experiment in a line: Measurement of cytosolic Ca2+ ([Ca2+]i) with fura-2. The format is cell-based. As to conditions: HSC-T6 cells treated with PL, then TGF-β1 added; compared with positive control. The procedure: Trypsinized cells (10^6/ml) were recovered 4 h after culture with PL and loaded with 2 μM fura-2/acetoxy methyl (fura-2/AM) for 30 min at 25° C. before stimulating with TGF-β (2ng/ml). Cells were gently shaken for several seconds every 10 min to prevent re-attachment. Cells were washed and resuspended in Ca^2+-containing medium. Fura-2 fluorescence measurements were performed in a water-jacketed cuvette with continuous stirring at 25° C. Fluorescence was monitored with a Hitachi F-2500 fluorescence spectrophotometer by recording excitation signals at), and 380 nm and emission signals at 510 nm at 1-s intervals.
Therefore, we examined whether PL could change the concentration of [Ca^2+]i in TGF-β treated cells. Activation of HSC, the main source of liver collagen, involves the induction of α-SMA, conversing from quiescent to proliferation, and secretion of collagen. After treatment with PL, TGF-β1 was added to HSC-T6 cells and the [Ca^2+]i was measured immediately (FIG. 2). PL decreased the protein levels of α-SMA, which was detected by both flow cytometry and Western blot (FIG. 3). The results imply that a trace amount of PL is sufficient enough to block-[Ca^2+]i and down-regulate α-SMA expression.

For the next data set, the system named is p-Smad2/3. The experiment in a line: TGF-β-induced p-Smad2/3 and Smad4 translocation into nucleus (Western blot, immunocytostaining). The format is cell-based. An excerpt: Translocation of phosphorylated Smad complexes into nucleus is one of the key steps in signal transduction of the liver fibrosis. In activated HSC there is an elevated accumulation of p-Smad2/3 and Smad4 in nucleus. To understand how PL regulates Smad signaling pathway, we first determined the amount of Smad complexes using Western blot.
For orientation: A western blot detects proteins with antibodies after separation by electrophoresis.

The subject of the next data set is collagen (Col 1A2). The experiment in a line: Col 1A2 expression, immunostaining of HSC-T6 cells treated with TGF-β and PL. As to conditions: HSC-T6 cells treated with TGF-β and 30, 150 or 300 nM PL for 4 hours. The format is cell-based. The procedure:
It has been shown that TGF-β plays a major role in fibrogenesis via the activation of HSC. After the HSC-T6 cells were treated with TGF-β and PL for 4 hours, the cells were subjected to immunostaining and observed under a fluorescence microscopy, as shown in FIG. 4.

For data set [2], the system named is α-SMA. The experiment in a line: α-SMA expression in liver tissue of TGF-β1 transferred fibrotic mice. The format is in vivo. Particulars: PL i.p. 30, 150 or 300 μg/kg, compared with the positive controls. How it is done:
(§1) The eight-week-old BALB/c mice were fed ad libitum standard laboratory chow and water with or without 25 mM ZnSO4 plus 5% sucrose. PL was given intraperitoneally (i.p.) at 30, 150 or 300 μg/kg. The animals were hydrodynamically injected with pPK9a plasmid containing TGF-β1 gene through tail vein and simultaneously fed with ZnSO4(25 mM) and PL as reported. After 48 h, the mice were sacrificed for liver sections.
(§2) […] of plasmid (pPK9a) was dissolved in 3.0 ml Ringer's solution and injected in bolus into the tail vein in a short duration of 5˜7 seconds according to the hydrodynamics-based transfection protocol as described. ZnSO4(25 mM) was dissolved in the drinking water to activate the metallothionein promoter and stimulate TGF-β1 expression.
Mouse liver tissues were embedded in an optimal cutting temperature compound (Miles Inc.) and frozen in liquid nitrogen. […]

Data set [3] deals with α-SMA. The experiment in a line: α-SMA expression in HSC-T6 cells (flow cytometry and Western blot). Format: cell-based. Particulars: TGF-β and PL, compared with positive control. The procedure:
(§3) Cells were incubated with 2 ng/ml of TGF-β and PL for 5 hours and analyzed for the oxidation state using 7-dichlorodihydrofluorescein diacetate (DCFH-DA) as a fluorogenic probe and flow cytometer (FACSCalibur). The cells were recovered with 0.01% trypsin and the cellular fluorescence intensity was measured after 30 min incubation of 5 μM DCFHDA. For each analysis, 10,000 events were recorded. Cells were collected in 0.01% trypsin, fixed with 3.7% formaldehyde, permeabilized with 0.02% Triton X-100 in PBS, and stained for a-SMA as described previously. For detecting a-SMA using flow cytometry, cells were treated with 2 ng/ml of TGF-β and PL for 12 hours and immunostained with α-SMA-specific antibody (Santa Cruz) and FITC-conjugated secondary antibody (Molecular Probe). Then the cells were recovered and subjected to flow cytometer, and PL can effectively eliminate radicals as ROS decreased with increasing dosages of PL, as referred to FIG. 1.
Liver tissues were homogenized in RIPA buffer and centrifuged as described; supernatant was taken as a whole-cell lysate. […]
Therefore, we examined whether PL could change the concentration of [Ca^2+]i in TGF-β treated cells. […] After treatment with PL, TGF-β1 was added to HSC-T6 cells and the [Ca^2+]i was measured immediately (FIG. 2). PL decreased the protein levels of α-SMA, which was detected by both flow cytometry and Western blot (FIG. 3). […]
On the technique in general: Flow cytometry measures light scatter and fluorescence of single cells or particles in a stream.

The test system of another data set is Sp1. The experiment in a line: Sp1 binding activity (EMSA) in liver of pPK9a-transferred mice fed with ZnSO4 water. The format is in vivo, mouse. Particulars: TGF-β1-induced increase. How it is done: as §1, §2
Since Sp1 is a critical mediator of Col 1A2 expression, we examined the effects of PL on Sp1 binding activity in pPK9a-transferred mice fed with ZnSO4 water.
In general terms: In EMSA bound probe runs differently from free probe, usually more slowly.

The subject of data set [4] is TGF-β-induced ROS in HSC-T6 cells. The experiment in a line: ROS assay on TGF-β1 and PL-treated HSC-T6 cells (DCFH-DA, flow cytometry). The format is cell-based. As to conditions: pretreatment with 30˜300 nM PL, TGF-β1 2 ng/ml. How it is done: as §3
ROS intermediates act as signaling molecules of TGF-β in regulation of inflammatory and fibrotic responses. Therefore, first select marker was to determine whether PL could be an antioxidant to block TGF-β-induced ROS in HSC-T6 cells. The intracellular oxidation state of the cell was analyzed by flow cytometry, when ROS were induced by TGF-β1 (2 ng/ml). […]

On to `CC1=C(/C=C/C(C)=C/C=C/C(C)=C/C(=O)O)C(C)(C)CCC1` [PL], for which the “intracellular calcium [Ca2+]i” value in data set [1] was “significantly reduced”. In the data set with p-Smad2/3 (Western blot), the “amount of p-Smad2/3 in the cell nucleus” value is “decreased the amount of p-Smad2/3 in the cell nucleus in a dose-dependent manner”. In addition, the “transport of p-Smad2/3 into cell nucleus” value in the data set on p-Smad2/3 (immunocytostaining) was “decreased the transport of p-Smad2/3 into cell nucleus also in a dose-dependent manner”. For the same compound, in the data set with collagen (Col 1A2), the “expression of Col 1A2” value came to 0.001%. In addition, in the data set on α-SMA [2], the “α-SMA expression in liver tissue” value was “markedly inhibited”. Besides, in the data set with α-SMA [3], the α-SMA expression result is reported as “significantly reduced”. In addition, in the data set with Sp1, the Sp1 binding activity entry is “the increase was reversed by PL treatment”. Further, the “ROS generated by TGF-β1” value in data set [4] is recorded as “sufficiently eliminate the ROS generated by TGF-β1 in a dose-dependent manner”.
